Measured values as given in patent US9884063B2, “Amido-substituted azole compounds” (Bayer Pharma Aktiengesellschaft, priority 2014, dated 2018).

Molecular target: T1, TNKS2 (Homo sapiens, UniProt Q9H2K2)
T1 sequence (Q9H2K2 1-1166): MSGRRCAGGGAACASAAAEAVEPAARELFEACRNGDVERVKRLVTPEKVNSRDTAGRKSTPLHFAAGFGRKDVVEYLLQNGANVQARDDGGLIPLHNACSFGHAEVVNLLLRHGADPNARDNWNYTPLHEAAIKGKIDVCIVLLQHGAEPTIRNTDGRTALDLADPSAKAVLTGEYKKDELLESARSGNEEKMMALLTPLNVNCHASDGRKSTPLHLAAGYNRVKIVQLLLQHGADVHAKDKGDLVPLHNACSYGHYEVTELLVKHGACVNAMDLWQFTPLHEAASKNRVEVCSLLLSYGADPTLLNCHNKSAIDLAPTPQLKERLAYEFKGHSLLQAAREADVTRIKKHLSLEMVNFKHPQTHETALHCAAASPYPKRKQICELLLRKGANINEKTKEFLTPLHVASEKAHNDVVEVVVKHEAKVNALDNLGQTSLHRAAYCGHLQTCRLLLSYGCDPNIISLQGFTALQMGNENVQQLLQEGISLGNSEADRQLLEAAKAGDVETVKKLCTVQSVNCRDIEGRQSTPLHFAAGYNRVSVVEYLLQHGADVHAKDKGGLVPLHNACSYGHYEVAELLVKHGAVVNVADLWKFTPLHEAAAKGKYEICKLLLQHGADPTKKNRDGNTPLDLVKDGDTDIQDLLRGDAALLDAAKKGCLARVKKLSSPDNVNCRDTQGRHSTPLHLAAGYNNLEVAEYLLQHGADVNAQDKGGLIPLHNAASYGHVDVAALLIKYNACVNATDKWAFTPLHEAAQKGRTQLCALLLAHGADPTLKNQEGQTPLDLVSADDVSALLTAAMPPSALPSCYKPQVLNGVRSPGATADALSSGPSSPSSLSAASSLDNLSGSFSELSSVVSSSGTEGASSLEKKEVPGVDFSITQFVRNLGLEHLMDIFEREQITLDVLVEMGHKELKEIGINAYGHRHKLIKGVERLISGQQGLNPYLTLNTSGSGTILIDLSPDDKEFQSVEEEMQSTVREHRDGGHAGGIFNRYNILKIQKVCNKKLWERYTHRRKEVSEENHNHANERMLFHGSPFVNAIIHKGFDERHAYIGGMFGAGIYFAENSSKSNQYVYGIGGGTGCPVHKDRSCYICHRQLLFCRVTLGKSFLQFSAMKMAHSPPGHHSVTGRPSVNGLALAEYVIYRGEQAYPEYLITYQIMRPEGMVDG
Experiment: Modified TNKS2 Assay 2 (auto-parsylation, [3H]-NAD+ SPA)
Format: biochemical
Conditions: 6 nM TNKS2, 96 well

SMILES	IC50
COC(=O)c1nc[nH]c1C(=O)Nc1ccc(NC(=O)c2ccc(F)cc2)c(OC)c1 [Example 102, methyl 5-({4-[(4-fluorobenzoyl)amino]-3-methoxyphenyl}carbamoyl)-1H-imidazole-4-carboxylate]	> 10 µM
Cc1cc(NC(=O)c2[nH]cnc2C(=O)NCCN2CCCCC2)ccc1NC(=O)c1ccccc1Cl [Example 89, N^5-{4-[(2-chlorobenzoyl)amino]-3-methylphenyl}-N^4-[2-(piperidin-1-yl)ethyl]-1H-imidazole-4,5-dicarboxamide]	0.05 µM
CNC(=O)c1nc[nH]c1C(=O)Nc1ccc(NC(=O)c2ccc(F)cc2Cl)c(OC)c1 [Example 95, N^5-{4-[(2-chloro-4-fluorobenzoyl)amino]-3-methoxyphenyl}-N^4-methyl-1H-imidazole-4,5-dicarboxamide]	0.47 µM
COc1cc(NC(=O)c2[nH]cnc2C(=O)NCCN(C)C)ccc1NC(=O)c1ccccc1Cl [Example 100, N^5-{4-[(2-chlorobenzoyl)amino]-3-methoxyphenyl}-N^4-[2-(dimethylamino)ethyl]-1H-imidazole-4,5-dicarboxamide]	0.16 µM
CNC(=O)c1[nH]c(C(C)C)nc1C(=O)Nc1ccc(NC(=O)c2ccc(F)cc2Cl)cc1 [Example 106, N^4-{4-[(2-chloro-4-fluorobenzoyl)amino]phenyl}-2-isopropyl-N^5-methyl-1H-imidazole-4,5-dicarboxamide]	> 10 µM
COc1cc(NC(=O)c2[nH]cnc2C(=O)NCCN2CCCCC2)ccc1NC(=O)c1ccc(F)cc1Cl [Example 97, N^5-{4-[(2-chloro-4-fluorobenzoyl)amino]-3-methoxyphenyl}-N^4-[2-(piperidin-1-yl)ethyl]-1H-imidazole-4,5-dicarboxamide]	0.005 µM
CN(C)CCNC(=O)c1nc[nH]c1C(=O)Nc1ccc(NC(=O)c2ccccc2Cl)nc1 [Example 113, N^5-{6-[(2-chlorobenzoyl)amino]pyridin-3-yl}-N^4-[2-(dimethylamino)ethyl]-1H-imidazole-4,5-dicarboxamide]	0.04 µM
CNC(=O)c1nc[nH]c1C(=O)Nc1ccc(NC(=O)c2ccccc2Cl)nc1 [Example 112, N^5-{6-[(2-chlorobenzoyl)amino]pyridin-3-yl}-N^4-methyl-1H-imidazole-4,5-dicarboxamide]	0.37 µM
COC(=O)c1nc[nH]c1C(=O)Nc1ccc(NC(=O)c2ccc(F)cc2Cl)c(OC)c1 [Example 94, methyl 5-({4-[(2-chloro-4-fluorobenzoyl)amino]-3-methoxyphenyl}carbamoyl)-1H-imidazole-4-carboxylate]	0.5 µM
COc1cc(NC(=O)c2[nH]cnc2C(=O)NCCN(C)C)ccc1NC(=O)c1ccc(F)cc1Cl [Example 96, N^5-{4-[(2-chloro-4-fluorobenzoyl)amino]-3-methoxyphenyl}-N^4-[2-(dimethylamino)ethyl]-1H-imidazole-4,5-dicarboxamide]	0.04 µM
COC(=O)c1nc[nH]c1C(=O)Nc1ccc(NC(=O)c2ccccc2Cl)c(OC)c1 [Example 98, methyl 5-({4-[(2-chlorobenzoyl)amino]-3-methoxyphenyl}carbamoyl)-1H-imidazole-4-carboxylate]	0.37 µM
COC(=O)c1nc[nH]c1C(=O)Nc1ccc(NC(=O)c2ccccc2Cl)c(C)c1 [Example 86, methyl-5-({4-[(2-chlorobenzoyl)amino]-3-methylphenyl}carbamoyl)-1H-imidazole-4-carboxylate]	3.4 µM
